{"source": "paper PMC8557155", "about": "(Annals of Nuclear Medicine, 2021)", "origin": "cited, not measured here", "conditions": "rat model, lysine-protected rats; cited from earlier work", "data": [{"smiles": "NCCCC[C@H](N)C(=O)O", "note": "[lysine]", "values": [{"measurement": "Reduction of 177Lu quantified in the kidney", "value": "approximately 45%"}]}]}
